Experimental data taken from ChEMBL document CHEMBL1122370 (J Med Chem, 1983).

Legend:
L1210 [1] = experiment: In vivo antitumor activity against L1210 leukemia in 5 mice measured as median survival range at 20 mg/kg; Value ranges from(13-22); type: functional, Mus musculus
L1210 [2] = experiment: In vivo antitumor activity against L1210 leukemia in 5 mice measured as median survival range at 40 mg/kg; Value ranges from(22-27); type: functional, Mus musculus
L1210 [3] = experiment: In vivo antitumor activity against L1210 leukemia in 5 mice measured as median survival range at 10 mg/kg; Value ranges from(13-20); type: functional, Mus musculus
L1210 [4] = experiment: In vivo antitumor activity against L1210 leukemia in 17 mice measured as T/C values; T/C = 17/9; type: functional, Mus musculus
L1210 [5] = experiment: In vivo antitumor activity against L1210 leukemia in 18 mice measured as T/C values; T/C = 18/9; type: functional, Mus musculus
L1210 [6] = experiment: In vivo antitumor activity against L1210 leukemia in 24 mice measured as T/C value; T/C = 24/9; type: functional, Mus musculus
L1210 [7] = experiment: In vivo antitumor activity against L1210 leukemia in 5 mice measured as Increased life span at 20 mg/kg.; type: functional; details: Mus musculus
L1210 [8] = experiment: In vivo antitumor activity against L1210 leukemia in 5 mice measured as Increased life span at 40 mg/kg.; type: functional; details: Mus musculus
L1210 [9] = experiment: In vivo anti tumor activity against L1210 leukemia in 5 mice measured as Increased life span at 10 mg/kg.; type: functional; details: Mus musculus
Mus musculus [10] = experiment: Average weight of the mouse after treating with 10 mg/kg dose for 1 day.; type: functional; design: unit not given here
Mus musculus [11] = experiment: Average weight of the mouse after treating with 20 mg/kg dose for 1 day.; type: functional; design: unit not given here
Mus musculus [12] = experiment: Average weight of the mouse after treating with 40 mg/kg dose for 1 day.; type: functional; design: unit not given here
Mus musculus [13] = experiment: Average weight of the mouse after treating with 10 mg/kg dose for 7 days.; type: functional
Mus musculus [14] = experiment: (§1) Average weight of the mouse after treating with 20 mg/kg dose for 7 days.; type: functional; design: unit not given beside the values
Mus musculus [15] = experiment: Average weight of the mouse after treating with 40 mg/kg dose for 7 days.; type: functional; design: unit not given beside the values
L1210 [16] = experiment: In vivo antitumor activity against L1210 leukemia in 5 mice measured as median survival range at 20 mg/kg; Value ranges from(17-25); type: functional, Mus musculus
L1210 [17] = experiment: In vivo antitumor activity against L1210 leukemia in 5 mice measured as median survival range at 10 mg/kg; Value ranges from(15-21); type: functional, Mus musculus
L1210 [18] = experiment: In vivo antitumor activity against L1210 leukemia in 15 mice measured as T/C values; T/C = 15/9; type: functional, Mus musculus
L1210 [19] = experiment: In vivo antitumor activity against L1210 leukemia in 5 mice measured as Increased life span at 10 mg/kg.; type: functional; details: Mus musculus
Mus musculus [20] = experiment: as §1; type: functional
L1210 [21] = experiment: In vivo antitumor activity against L1210 leukemia in 5 mice measured as median survival range at 40 mg/kg; Value ranges from (12-20); type: functional, Mus musculus
L1210 [22] = experiment: In vivo antitumor activity against L1210 leukemia in 5 mice measured as median survival range at 20 mg/kg; Value ranges from (11-15); type: functional, Mus musculus
L1210 [23] = experiment: In vivo antitumor activity against L1210 leukemia in 13 mice measured as T/C values; T/C = 13/9; type: functional, Mus musculus
L1210 [24] = experiment: In vivo antitumor activity against L1210 leukemia in 14 mice measured as T/C values; T/C = 14/9; type: functional, Mus musculus
Mus musculus [25] = experiment: Average weight change in mouse after treating with 20 mg/kg dose for 7 days.; type: functional; design: unit not given beside the values
Mus musculus [26] = experiment: Average weight change in mouse after treating with 40 mg/kg dose for 7 days.; type: functional
L1210 [27] = experiment: In vivo antitumor activity against L1210 leukemia in 5 mice measured as median survival range at 40 mg/kg; Value ranges from (11-21); type: functional, Mus musculus
L1210 [28] = experiment: In vivo antitumor activity against L1210 leukemia in 5 mice measured as median survival range at 10 mg/kg; Value ranges from (11-13); type: functional, Mus musculus
L1210 [29] = experiment: In vivo antitumor activity against L1210 leukemia in 14 mice measured as T/C values(days); T/C = 14/9; type: functional, Mus musculus
L1210 [30] = experiment: In vivo antitumor activity against L1210 leukemia in 5 mice measured as T/C values(days); T/C = 17/9; type: functional, Mus musculus
L1210 [31] = experiment: In vivo antitumor activity against L1210 leukemia in 12 mice measured as T/C values; T/C = 12/9; type: functional, Mus musculus
Mus musculus [32] = experiment: Average weight change in mouse after treating with 10 mg/kg dose for 7 days.; type: functional
L1210 [33] = experiment: In vivo antitumor activity against L1210 leukemia in 5 mice measured as median survival range at 20 mg/kg; Value ranges from (12-16); type: functional, Mus musculus

| Structure (SMILES) | T/C (L1210 [6]) | ILS at 20 mg/kg (L1210 [7]) [%] | ILS at 40 mg/kg (L1210 [8]) [%] | ILS at 10 mg/kg (L1210 [9]) [%] | Average weight (Mus musculus [10]) | Average weight (Mus musculus [11]) | Average weight (Mus musculus [12]) | Weight change (Mus musculus [13]) | Weight change (Mus musculus [25]) | Weight change (Mus musculus [26]) | other results |
| --- | --- | --- | --- | --- | --- | --- | --- | --- | --- | --- | --- |
| CN(Cc1cnc2nc(N)nc(N)c2n1)c1ccc(C(=O)NC(CCC(=O)OCc2cc3c(cc2Cl)OCO3)C(=O)OCc2cc3c(cc2Cl)OCO3)cc1 (stereo not given) | 9 | 100 | 167 | 88 | 22.5 | 22.2 | 21.4 | 2.1 | – | – | Range (L1210 [1]): 22; Range (L1210 [2]): 27; Range (L1210 [3]): 20; T/C (L1210 [4]): 11; T/C (L1210 [5]): 9; Weight change (Mus musculus [14]): 1; Weight change (Mus musculus [15]): 0.2 |
| CN(Cc1cnc2nc(N)nc(N)c2n1)c1ccc(C(=O)NC(CCC(=O)OCc2c(Cl)cccc2Cl)C(=O)OCc2c(Cl)cccc2Cl)cc1 (stereo not given) | 9 | 167 | – | – | 21.6 | 22.4 | – | 1.4 | – | – | Range (L1210 [16]): 25; Range (L1210 [17]): 21; T/C (L1210 [18]): 9; ILS at 10 mg/kg (L1210 [19]): 66%; Weight change (Mus musculus [20]): 0.8 |
| CCOCCOC(=O)CCC(NC(=O)c1ccc(N(C)Cc2cnc3nc(N)nc(N)c3n2)cc1)C(=O)OCCOCC (stereo not given) | – | 44 | 55 | – | – | 22.6 | 23.1 | – | 1.5 | 0.5 | Range (L1210 [21]): 20; Range (L1210 [22]): 15; T/C (L1210 [23]): 9; T/C (L1210 [24]): 9 |
| CC(C)CCOC(=O)CCC(NC(=O)c1ccc(N(C)Cc2cnc3nc(N)nc(N)c3n2)cc1)C(=O)OCCC(C)C (stereo not given) | – | 33 | 88 | 33 | 21.9 | 23.7 | 23.2 | – | 1.9 | 1 | Range (L1210 [27]): 21; Range (L1210 [28]): 13; T/C (L1210 [29]): 14; T/C (L1210 [30]): 17; T/C (L1210 [31]): 12; Weight change (Mus musculus [32]): 3; Range (L1210 [33]): 16 |
